What was measured:
Assay type in all cases: biochemical
EGFR WT = EGFR WT (Homo sapiens (Human), UniProt P00533); assay: HotSpot radiometric kinase assay (Reaction Biology), EGFR WT; details: 10 μM ATP
Method: (§1) Biochemical Assays for Inhibition of Wild-Type and Mutant EGFRs
(§2) Briefly, specific kinase/substrate pairs along with required cofactors were prepared in reaction buffer; 20 mM Hepes pH 7.5, 10 mM […], 1 mM EGTA, 0.02% Brij35, 0.02 mg/ml BSA, 0.1 mM Na3VO4, 2 mM DTT, 1% DMSO. Compounds were delivered into the reaction, followed […] later by addition of a mixture of ATP (Sigma, St. Louis MO) and ^33P ATP (Perkin Elmer, Waltham MA) to a final concentration of 10 μM. Reactions were carried out at room temperature for 120 min, followed by spotting of the reactions onto P81 ion exchange filter paper (Whatman Inc., Piscataway, NJ). Unbound phosphate was removed by extensive washing of filters in 0.75% phosphoric acid. […] IC50 values and curve fits were obtained using Prism (GraphPad Software).

EGFR (D770_N771insNPG) = EGFR (D770_N771insNPG) (Homo sapiens (Human), UniProt P00533, INS770NPG); assay: HotSpot radiometric kinase assay, EGFR (D770_N771insNPG); details: 10 μM ATP, read-out: EGFR (Δ770_N771insNPG) IC50
EGFR (D770_N771insNPG), sequence (P00533 other isoform, or with tags, fused parts or gaps del 1-668/ins NPG behind 770 limits assumed): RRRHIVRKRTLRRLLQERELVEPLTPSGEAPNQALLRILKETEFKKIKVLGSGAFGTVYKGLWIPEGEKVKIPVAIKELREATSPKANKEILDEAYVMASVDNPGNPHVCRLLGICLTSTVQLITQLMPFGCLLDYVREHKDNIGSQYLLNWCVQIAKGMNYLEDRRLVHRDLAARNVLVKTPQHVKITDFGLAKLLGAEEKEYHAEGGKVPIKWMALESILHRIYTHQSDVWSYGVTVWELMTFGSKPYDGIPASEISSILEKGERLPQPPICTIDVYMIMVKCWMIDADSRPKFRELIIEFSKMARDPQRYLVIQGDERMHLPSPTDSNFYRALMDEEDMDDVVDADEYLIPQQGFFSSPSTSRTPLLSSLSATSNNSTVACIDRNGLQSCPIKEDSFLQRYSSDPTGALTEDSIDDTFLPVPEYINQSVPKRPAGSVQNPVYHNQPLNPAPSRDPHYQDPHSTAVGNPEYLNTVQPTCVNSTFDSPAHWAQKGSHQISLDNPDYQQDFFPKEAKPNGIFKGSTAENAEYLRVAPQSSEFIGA
Method: as §1, §2

EGFR Δ746-750 mutant = EGFR Δ746-750 mutant (Homo sapiens (Human), UniProt P00533, DEL746-750); assay: HotSpot radiometric kinase assay, EGFR Δ746-750 mutant; details: 10 μM ATP
EGFR Δ746-750 mutant, sequence (P00533 other isoform, or with tags, fused parts or gaps del 1-668/del 746-750 limits assumed): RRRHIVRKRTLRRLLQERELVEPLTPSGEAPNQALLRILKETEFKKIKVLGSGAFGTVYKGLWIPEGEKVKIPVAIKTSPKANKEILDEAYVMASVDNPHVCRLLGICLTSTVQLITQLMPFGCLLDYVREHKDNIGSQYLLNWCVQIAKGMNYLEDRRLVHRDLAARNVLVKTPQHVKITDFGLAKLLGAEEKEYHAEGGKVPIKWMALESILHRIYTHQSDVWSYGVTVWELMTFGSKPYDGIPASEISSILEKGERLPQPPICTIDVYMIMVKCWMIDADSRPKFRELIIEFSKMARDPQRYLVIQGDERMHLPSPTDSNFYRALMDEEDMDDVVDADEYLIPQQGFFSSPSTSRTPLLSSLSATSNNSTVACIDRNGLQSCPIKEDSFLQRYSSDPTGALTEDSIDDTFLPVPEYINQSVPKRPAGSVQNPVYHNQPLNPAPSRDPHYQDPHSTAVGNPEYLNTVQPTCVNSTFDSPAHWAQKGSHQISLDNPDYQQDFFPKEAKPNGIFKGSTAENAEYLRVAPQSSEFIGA
Method: as §1, §2

[1] = target: EGFR Δ746-750/C797S mutant (Homo sapiens (Human), UniProt P00533, C797S/DEL746-750); assay: HotSpot radiometric kinase assay, EGFR Δ746-750/C797S mutant; details: 10 μM ATP
Method: as §1, §2

EGFR L858R mutant = EGFR L858R mutant (Homo sapiens (Human), UniProt P00533, L858R); assay: HotSpot radiometric kinase assay, EGFR L858R mutant; details: 10 μM ATP
Method: as §1, §2

EGFR L858R/T790M mutant = EGFR L858R/T790M mutant (Homo sapiens (Human), UniProt P00533, L858R/T790M); assay: HotSpot radiometric kinase assay, EGFR L858R/T790M mutant; details: 10 μM ATP
EGFR L858R/T790M mutant, sequence (P00533 25-1210 T790M/L858R): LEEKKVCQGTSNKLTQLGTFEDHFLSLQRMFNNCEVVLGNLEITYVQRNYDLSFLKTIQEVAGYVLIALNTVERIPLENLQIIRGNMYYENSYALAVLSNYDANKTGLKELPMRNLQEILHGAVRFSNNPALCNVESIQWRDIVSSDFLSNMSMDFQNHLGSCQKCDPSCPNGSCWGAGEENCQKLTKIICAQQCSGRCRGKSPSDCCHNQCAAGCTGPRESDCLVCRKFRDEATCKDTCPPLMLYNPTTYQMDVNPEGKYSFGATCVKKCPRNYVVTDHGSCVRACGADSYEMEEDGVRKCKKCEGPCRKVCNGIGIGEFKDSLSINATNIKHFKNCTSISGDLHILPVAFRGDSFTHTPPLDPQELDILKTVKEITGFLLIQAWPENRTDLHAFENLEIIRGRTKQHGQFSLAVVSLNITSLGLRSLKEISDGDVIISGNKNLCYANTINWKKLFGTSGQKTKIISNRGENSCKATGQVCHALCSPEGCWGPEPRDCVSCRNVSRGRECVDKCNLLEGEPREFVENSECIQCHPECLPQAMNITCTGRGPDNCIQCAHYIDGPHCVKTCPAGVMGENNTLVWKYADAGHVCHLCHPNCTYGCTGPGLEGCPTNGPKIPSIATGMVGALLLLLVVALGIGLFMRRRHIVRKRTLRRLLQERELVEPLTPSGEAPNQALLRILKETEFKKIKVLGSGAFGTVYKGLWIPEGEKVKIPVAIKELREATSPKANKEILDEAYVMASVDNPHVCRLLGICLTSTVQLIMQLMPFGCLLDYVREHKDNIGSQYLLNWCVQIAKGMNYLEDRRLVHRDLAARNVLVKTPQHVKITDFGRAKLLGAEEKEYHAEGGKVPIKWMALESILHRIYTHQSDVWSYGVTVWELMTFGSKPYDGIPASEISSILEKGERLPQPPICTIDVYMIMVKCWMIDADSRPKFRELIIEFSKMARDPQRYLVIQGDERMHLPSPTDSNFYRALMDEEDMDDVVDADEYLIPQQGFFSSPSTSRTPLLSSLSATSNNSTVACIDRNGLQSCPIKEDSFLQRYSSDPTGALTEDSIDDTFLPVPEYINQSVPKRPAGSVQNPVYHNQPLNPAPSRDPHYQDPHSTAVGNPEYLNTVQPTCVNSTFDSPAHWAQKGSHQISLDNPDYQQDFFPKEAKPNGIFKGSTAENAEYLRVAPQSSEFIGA
Method: as §1, §2

[2] = target: EGFR L858R/T790M/C797S mutant (Homo sapiens (Human), UniProt P00533, C797S/L858R/T790M); assay: HotSpot radiometric kinase assay, EGFR L858R/T790M/C797S mutant; details: 10 μM ATP
EGFR L858R/T790M/C797S mutant, sequence (P00533 25-1210 T790M/C797S/L858R): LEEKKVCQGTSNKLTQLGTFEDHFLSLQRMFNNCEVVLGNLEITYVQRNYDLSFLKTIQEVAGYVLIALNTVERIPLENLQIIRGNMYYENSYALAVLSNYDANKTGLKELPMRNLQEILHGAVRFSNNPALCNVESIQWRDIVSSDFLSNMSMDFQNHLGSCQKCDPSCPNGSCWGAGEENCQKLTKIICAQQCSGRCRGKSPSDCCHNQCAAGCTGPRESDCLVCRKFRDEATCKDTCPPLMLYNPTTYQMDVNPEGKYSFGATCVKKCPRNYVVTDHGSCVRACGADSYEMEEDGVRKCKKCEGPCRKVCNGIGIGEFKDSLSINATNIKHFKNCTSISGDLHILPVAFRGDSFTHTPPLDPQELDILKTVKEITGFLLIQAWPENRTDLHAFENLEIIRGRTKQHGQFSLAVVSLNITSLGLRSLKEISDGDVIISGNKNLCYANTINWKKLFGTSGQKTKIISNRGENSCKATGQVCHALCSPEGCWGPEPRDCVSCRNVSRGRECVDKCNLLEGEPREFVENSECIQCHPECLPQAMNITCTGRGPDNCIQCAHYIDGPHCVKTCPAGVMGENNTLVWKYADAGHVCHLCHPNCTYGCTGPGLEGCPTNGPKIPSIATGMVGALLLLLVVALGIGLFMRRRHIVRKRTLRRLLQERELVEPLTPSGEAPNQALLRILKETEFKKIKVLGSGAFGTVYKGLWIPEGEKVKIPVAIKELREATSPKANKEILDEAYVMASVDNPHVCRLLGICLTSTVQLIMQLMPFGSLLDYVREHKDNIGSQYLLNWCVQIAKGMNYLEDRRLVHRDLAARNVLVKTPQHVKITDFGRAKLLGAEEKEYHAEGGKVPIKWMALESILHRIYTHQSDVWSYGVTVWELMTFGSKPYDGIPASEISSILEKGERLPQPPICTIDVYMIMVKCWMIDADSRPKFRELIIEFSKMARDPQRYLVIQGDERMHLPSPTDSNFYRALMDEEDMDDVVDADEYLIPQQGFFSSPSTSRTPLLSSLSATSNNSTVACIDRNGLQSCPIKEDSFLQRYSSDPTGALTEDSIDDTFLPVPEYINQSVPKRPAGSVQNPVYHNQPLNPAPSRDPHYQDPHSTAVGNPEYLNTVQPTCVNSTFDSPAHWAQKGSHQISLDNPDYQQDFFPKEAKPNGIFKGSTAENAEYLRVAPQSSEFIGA
Method: as §1, §2

EGFR WT, sequence (P00533 25-1210): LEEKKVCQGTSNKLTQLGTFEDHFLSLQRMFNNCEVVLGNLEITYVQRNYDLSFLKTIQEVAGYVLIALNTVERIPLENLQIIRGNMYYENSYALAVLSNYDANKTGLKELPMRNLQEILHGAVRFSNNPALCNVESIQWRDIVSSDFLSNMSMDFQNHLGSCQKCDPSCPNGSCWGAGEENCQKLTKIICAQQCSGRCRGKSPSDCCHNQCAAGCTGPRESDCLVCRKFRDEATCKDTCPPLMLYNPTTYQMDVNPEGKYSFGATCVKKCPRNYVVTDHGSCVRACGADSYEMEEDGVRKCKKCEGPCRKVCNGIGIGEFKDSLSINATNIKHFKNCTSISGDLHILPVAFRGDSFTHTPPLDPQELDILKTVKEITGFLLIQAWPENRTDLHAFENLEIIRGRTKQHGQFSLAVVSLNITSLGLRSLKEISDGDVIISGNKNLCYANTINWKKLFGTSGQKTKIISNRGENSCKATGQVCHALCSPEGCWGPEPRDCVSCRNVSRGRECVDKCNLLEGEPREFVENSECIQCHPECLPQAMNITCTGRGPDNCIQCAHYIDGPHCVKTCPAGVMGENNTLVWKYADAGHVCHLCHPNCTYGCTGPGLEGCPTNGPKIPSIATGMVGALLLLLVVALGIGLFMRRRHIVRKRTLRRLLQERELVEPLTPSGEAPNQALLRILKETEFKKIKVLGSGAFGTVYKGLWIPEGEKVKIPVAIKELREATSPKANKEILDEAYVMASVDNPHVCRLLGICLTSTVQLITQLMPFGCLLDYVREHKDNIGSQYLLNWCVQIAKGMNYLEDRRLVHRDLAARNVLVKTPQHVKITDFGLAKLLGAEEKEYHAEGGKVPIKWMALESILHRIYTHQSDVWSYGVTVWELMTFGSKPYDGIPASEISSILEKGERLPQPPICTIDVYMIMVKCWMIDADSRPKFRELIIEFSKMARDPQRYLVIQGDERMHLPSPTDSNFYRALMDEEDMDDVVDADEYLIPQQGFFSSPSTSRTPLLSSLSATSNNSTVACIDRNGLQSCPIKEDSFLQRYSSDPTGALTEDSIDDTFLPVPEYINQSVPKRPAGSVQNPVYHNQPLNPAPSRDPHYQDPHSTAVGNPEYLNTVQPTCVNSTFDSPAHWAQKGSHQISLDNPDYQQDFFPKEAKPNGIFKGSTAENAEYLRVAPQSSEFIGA

Row | IC50 (EGFR WT) [nM] | IC50 (EGFR (D770_N771insNPG)) [nM] | IC50 (EGFR Δ746-750 mutant) [nM] | IC50 [1] [nM] | IC50 (EGFR L858R mutant) [nM] | IC50 (EGFR L858R/T790M mutant) [nM] | IC50 [2] [nM] | Structure (SMILES)
1 | 782 | > 1000 | 296 | 228 | 828 | 43.3 | 33.5 | Cc1nn(C)c2c1/C=C/c1n[nH]c3ccc(cc13)-c1cnn(C)c1OCCN(C)C(=O)CO2 [Example 63, (19E)-8,12,16,18-tetramethyl-2,11,12,16-tetrahydro-8H,10H-3,5-ethenotripyrazolo[3,4-h:3′,4′-l:4″,3″- p][1,7,4]dioxazacycloheptadecin-13(14H)-one]
2 | 179 | 423 | 45 | 20.7 | 98.8 | 3.38 | 2 | Cc1nn(C)c2c1-c1ccc3[nH]nc(c3c1)/C=C/c1c(OC(C)C)nn(CCO)c1CN(C(C)C)C[C@@H](C)O2 [Example 202, 2-{(10R,17E)-6,8,10-trimethyl-12-(propan-2-yl)-16-[(propan-2-yl)oxy]-2,8,10,11,12,13-hexahydro-14H-3,5-ethenotripyrazolo[3,4-f:3′,4′-j:4″,3″-n][1,4]oxazacyclopentadecin-14-yl}ethan-1-ol]
3 | 86 | 109 | 74.1 | 39.8 | 36.1 | 12.5 | 15.8 | Cc1nn([C@H]2CNC[C@@H]2O)c2c1/C=C/c1n[nH]c3ccc(cc13)-c1cnn(C)c1OCCCO2 (racemic) [Example 74, (rac)-4-[(17E)-8,16-dimethyl-2,8,11,12-tetrahydro-10H,14H-3,5-etheno[1,5]dioxacyclopentadecino[10,11-c:15,14-c′:6,7-c″ ]tripyrazol-14-yl]pyrrolidin-3-ol]
4 | > 1000 | > 1000 | > 1000 | > 1000 | > 1000 | > 1000 | > 1000 | Cc1nn([C@H]2COCC[C@@H]2O)c2c1/C=C/c1n[nH]c3ccc(cc13)-c1cnn(C)c1OCCCO2 (racemic) [Example 86, (rac)-1,5-anhydro-2,4-dideoxy-2-[(17E)-8,16-dimethyl-2,8,11,12-tetrahydro-10H,14H-3,5-etheno[1,5]dioxacyclopentadecino[10,11-c:15,14-c′:6,7-c″ ]tripyrazol-14-yl]-L-threo-pentitol]
5 | 119 | 161 | 8.48 | 16.6 | 28.8 | 1.99 | 2.04 | CCOC(=O)Cn1nc(OCC)c2c1CN(CC)C[C@H](C)Oc1c(cnn1C)-c1ccc3[nH]nc(c3c1)/C=C/2 [Example 218, ethyl [(10S,17E)-16-ethoxy-12-ethyl-8,10-dimethyl-2,8,10,11,12,13-hexahydro-14H-3,5-ethenotripyrazolo[3,4-f:3′,4′-j:4″,3″-n][1,4]oxazacyclopentadecin-14-yl]acetate]
6 | 84.8 | 186 | 9.35 | 6.14 | 11.6 | 1.19 | 1.3 | Cc1nn(C)c2c1/C=C/c1n[nH]c3ccc(cc13)-c1cnn(C)c1O[C@@H](C)CN(C1COC1)C2 [Example 140, (10S,17E)-8,10,14,16-tetramethyl-12-(oxetan-3-yl)-2,10,11,12,13,14-hexahydro-8H-3,5-ethenotripyrazolo[3,4-f:3′,4′-j:4″,3″-n][1,4]oxazacyclopentadecine]
7 | > 1000 | > 1000 | > 1000 | > 1000 | > 1000 | 400 | > 1000 | Cn1ncc2c1OCCCOc1nn3ccn(C)c(=O)c3c1/C=C/c1n[nH]c3ccc-2cc13 [Example 91, (20E)-8,18-dimethyl-2,8,11,12-tetrahydro-10H-3,5-ethenodipyrazolo[3″,4″:10′,11′;4′″,3′″:14′,15′][1,5]dioxacyclopentadecino[6′,7′:3,4]pyrazolo[1,5-a]pyrazin-19(18H)-one]
8 | 290 | 362 | 29.3 | 44.5 | 96.6 | 13.1 | 22.5 | CCc1nn(CCO)c2c1/C=C/c1n[nH]c3ccc(cc13)-c1cnn(C)c1OCCCO2 [Ex. 23, 2-[(17E)-16-ethyl-8-methyl-2,8,11,12-tetrahydro-10H,14H-3,5-etheno[1,5]dioxacyclopentadecino[10,11-c:15,14-c′:6,7-c″]tripyrazol-14-yl]ethan-1-ol]
9 | 5.49 | 20.1 | 1.85 | 1.93 | 5.5 | 1.77 | 2.53 | CCOc1nn(CCO)c2c1/C=C/c1n[nH]c3ccc(cc13)-c1c(C)nn(C)c1O[C@H](C)CN(C1CC1)C2 [Example 204]
10 | 372 | 403 | 35 | 23.6 | 42.4 | 4.25 | 2.77 | C[C@H]1CN(C)Cc2c(c(O)nn2C)/C=C/c2n[nH]c3ccc(cc23)-c2cnn(C)c2O1 [Example 148, (10S,17E)-8,10,12,14-tetramethyl-2,10,11,12,13,14-hexahydro-8H-3,5-ethenotripyrazolo[3,4-f:3′,4′-j:4″,3″-n][1,4]oxazacyclopentadecin-16-ol]
11 | > 1000 | > 1000 | > 1000 | > 1000 | > 1000 | > 1000 | > 1000 | Cc1nn([C@H]2CCOC[C@@H]2O)c2c1/C=C/c1n[nH]c3ccc(cc13)-c1cnn(C)c1OCCCO2 (racemic) [Example 85, (rac)-1,5-anhydr-3o-2,3-dideoxy-3-[(17E)-8,16-dimethyl-2,8,11,12-tetrahydro-10H,14H-3,5-etheno[1,5]dioxacyclopentadecino[10,11-c:15,14-c′:6,7-c″ ]tripyrazol-14-yl]-L-threo-pentitol]
12 | 4.14 | 10.3 | 0.55 | 0.35 | 0.97 | 0.21 | 0.14 | C[C@H]1CN(C)Cc2c(c(OC3CN(S(C)(=O)=O)C3)nn2CCO)/C=C/c2n[nH]c3ccc(cc23)-c2cnn(C)c2O1 [Example 221, 2-[(10S,17E)-16-{[1-(methanesulfonyl)azetidin-3-yl]oxy}-8,10,12-trimethyl-2,8,10,11,12,13-hexahydro-14H-3,5-ethenotripyrazolo[3,4-f:3′,4′-j:4″,3″-n][1,4]oxazacyclopentadecin-14-yl]ethan-1-ol]
13 | 67.8 | 56.7 | 27.9 | 29.8 | 15.3 | 1.24 | 5.77 | Cc1nn([C@H]2CCN(C)C[C@@H]2O)c2c1/C=C/c1n[nH]c3ccc(cc13)-c1cnn(C)c1OCCCO2 (racemic) [Example 82, (rac)-4-[(17E)-8,16-dimethyl-2,8,11,12-tetrahydro-10H,14H-3,5-etheno[1,5]dioxacyclopentadecino[10,11-c:15,14-c′:6,7-c′]tripyrazol-14-yl]-1-methylpiperidin-3-ol]
14 | 769 | 1230 | 117 | 107 | 241 | 8.31 | 5.42 | CCOc1ccc2c(n1)/C=C/c1n[nH]c3ccc(cc13)-c1cnn(C)c1O[C@@H](C)CN(C)C2 [Ex. 267, (10S,18E)-16-ethoxy-8,10,12-trimethyl-2,8,10,11,12,13-hexahydro-3,5-ethenodipyrazolo[3,4-j:4′,3′-n]pyrido[3,2-f][1,4]oxazacyclopentadecine]
15 | > 1000 | 1880 | 749 | 803 | 2080 | 427 | 453 | Cc1nn([C@@H]2COC[C@H]2O)c2c1/C=C/c1n[nH]c3ccc(cc13)-c1cnn(C)c1OCCCO2 (single isomer, unassigned) [Example 77]
16 | 130 | 65.7 | 21.1 | 31.7 | 34.4 | 4.65 | 8.42 | Cc1nn(C2CCN(C)C2)c2c1/C=C/c1n[nH]c3ccc(cc13)-c1cnn(C)c1CN(C)CCO2 (centres unmarked) [Example 118, (17E)-8,10,16-trimethyl-14-(1-methylpyrrolidin-3-yl)-2,9,10,11,12,14-hexahydro-8H-3,5-ethenotripyrazolo[3,4-f:4′,3′-j:4″,3″-n][1,4]oxazacyclopentadecine]

Row | Structure (SMILES) | IC50 (EGFR WT) [nM] | IC50 (EGFR (D770_N771insNPG)) [nM] | IC50 (EGFR Δ746-750 mutant) [nM] | IC50 [1] [nM] | IC50 (EGFR L858R mutant) [nM] | IC50 (EGFR L858R/T790M mutant) [nM] | IC50 [2] [nM]
17 | Cc1c2c(nn1[C@H]1CCNC[C@@H]1O)OCCCOc1c(cnn1C)-c1ccc3[nH]nc(c3c1)/C=C/2 (racemic) [Example 81, (rac)-4-[(17E)-8,16-dimethyl-2,8,11,12-tetrahydro-10H,15H-3,5-etheno[1,5]dioxacyclopentadecino[10,11-c:15,14-c′:6,7-c″ ]tripyrazol-15-yl]piperidin-3-ol] | 43.8 | 40.3 | 29.6 | 33.4 | 16.8 | 1.7 | 7.42

From patent US20250353864A1, “INDAZOLE CONTAINING MACROCYCLES AND THEIR USE” (BLOSSOMHILL THERAPEUTICS, INC., priority 2022, published 2025)
